# Measured values taken from ChEMBL document CHEMBL1201862, “PubChem BioAssay data set” (2004).
#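 Results reflect a 48-hour exposure of cells in 96-well plates to compound at five concentrations. The concentration for 50% growth inhibition is given as GI50.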 The source made the active and inactive calls. Cut-off read from the data, not from the text of the source: active = GI50 up to about 1.1 µM and inactive = higher.
# Assays:
# Experiment in all cases: DTP human tumour cell line panel, 48 h
# [1] = test system: NCI/ADR-RES
# [2] = test system: A498
# [3] = test system: HOP-92
# [4] = test system: NCI-H522
# [5] = test system: CAKI-1
# [6] = test system: BT-549
# [7] = test system: K562
# [8] = test system: NCI-H460
# [9] = test system: KM12
# [10] = test system: M14
# [11] = test system: MOLT-4
# [12] = test system: SK-MEL-2
# [13] = test system: SNB-19
# [14] = test system: EKVX
# [15] = test system: HT-29
# [16] = test system: UO-31
# [17] = test system: Malme-3M
# [18] = test system: SF-295
# [19] = test system: DU-145
# [20] = test system: UACC-257
# [21] = test system: 786-0
# [22] = test system: SK-MEL-28
# [23] = test system: LOX IMVI
# [24] = test system: OVCAR-3
# [25] = test system: NCI-H23
# [26] = test system: MDA-MB-435
# [27] = test system: IGROV-1
# [28] = test system: ACHN
# [29] = test system: SN12C
# [30] = test system: RXF 393
# [31] = test system: SK-OV-3
# [32] = test system: A549
# [33] = test system: U-251
# [34] = test system: SF-268
# [35] = test system: HCC 2998
# [36] = test system: SF-539
# [37] = test system: T47D
# [38] = test system: UACC-62
# [39] = test system: Hs-578T
# [40] = test system: COLO 205
# [41] = test system: MDA-MB-231
# [42] = test system: HOP-62
# [43] = test system: SK-MEL-5
# [44] = test system: SW-620
# [45] = test system: MCF7
# [46] = test system: HL-60
# [47] = test system: RPMI-8226
# [48] = test system: NCI-H226
# [49] = test system: SR
# [50] = test system: PC-3
# [51] = test system: OVCAR-4
# [52] = test system: MDA-N
# [53] = test system: HCT-116
# [54] = test system: TK-10
# [55] = test system: HCT-15
# [56] = test system: OVCAR-5
# [57] = test system: OVCAR-8
# [58] = test system: CCRF-CEM
smiles,measurement,setting,value
O=C1C/C(=N/c2ccc(Cl)cc2)C(c2ccccc2)N1c1ccccc1 (stereo unspecified),GI50,[1],7.06 µM (inactive)
same,GI50,[2],19.3 µM (inactive)
same,GI50,[3],10.3 µM (inactive)
same,GI50,[4],1.64 µM (inactive)
same,GI50,[5],1.59 µM (inactive)
same,GI50,[6],5.28 µM (inactive)
same,GI50,[7],1.32 µM (inactive)
same,GI50,[8],29 µM (inactive)
same,GI50,[9],6.61 µM (inactive)
same,GI50,[10],5.9 µM (inactive)
same,GI50,[11],7.89 µM (inactive)
same,GI50,[12],2.7 µM (inactive)
same,GI50,[13],19.9 µM (inactive)
same,GI50,[14],> 100 µM (inactive)
same,GI50,[15],5.62 µM (inactive)
same,GI50,[16],5.41 µM (inactive)
same,GI50,[17],19.5 µM (inactive)
same,GI50,[18],8.61 µM (inactive)
same,GI50,[19],6.61 µM (inactive)
same,GI50,[20],17.4 µM (inactive)
same,GI50,[21],38.4 µM (inactive)
same,GI50,[22],7.87 µM (inactive)
same,GI50,[23],6.05 µM (inactive)
same,GI50,[24],2.99 µM (inactive)
same,GI50,[25],10 µM (inactive)
same,GI50,[26],2.15 µM (inactive)
same,GI50,[27],18.2 µM (inactive)
same,GI50,[28],6.43 µM (inactive)
same,GI50,[29],23.9 µM (inactive)
same,GI50,[30],35 µM (inactive)
same,GI50,[31],5.92 µM (inactive)
same,GI50,[32],17.4 µM (inactive)
same,GI50,[33],32.7 µM (inactive)
same,GI50,[34],3.6 µM (inactive)
same,GI50,[35],> 100 µM (inactive)
same,GI50,[36],14 µM (inactive)
same,GI50,[37],1.38 µM (inactive)
same,GI50,[38],1.43 µM (inactive)
same,GI50,[39],6.12 µM (inactive)
same,GI50,[40],3.66 µM (inactive)
same,GI50,[41],7.21 µM (inactive)
same,GI50,[42],32.1 µM (inactive)
same,GI50,[43],5.9 µM (inactive)
same,GI50,[44],10.2 µM (inactive)
same,GI50,[45],10 µM (inactive)
same,GI50,[46],2.96 µM (inactive)
same,GI50,[47],2.28 µM (inactive)
same,GI50,[48],10.1 µM (inactive)
same,GI50,[49],5.43 µM (inactive)
same,GI50,[50],3.28 µM (inactive)
same,GI50,[51],14.3 µM (inactive)
same,GI50,[52],2.5 µM (inactive)
same,GI50,[53],8.89 µM (inactive)
same,GI50,[54],23.9 µM (inactive)
same,GI50,[55],5.92 µM
COc1cc(/C=C/c2nc(N)nnc2C)cc(OC)c1OC,GI50,[1],11.2 µM (inactive)
same,GI50,[2],18 µM (inactive)
same,GI50,[3],16.6 µM (inactive)
same,GI50,[4],2.43 µM (inactive)
same,GI50,[5],6.56 µM (inactive)
same,GI50,[6],20.5 µM (inactive)
same,GI50,[7],15.5 µM (inactive)
same,GI50,[8],13.8 µM (inactive)
same,GI50,[9],10.9 µM (inactive)
same,GI50,[10],33.3 µM (inactive)
same,GI50,[11],38.8 µM (inactive)
same,GI50,[12],> 37.9 µM (inactive)
same,GI50,[13],23.4 µM (inactive)
same,GI50,[14],18.1 µM (inactive)
same,GI50,[15],10.6 µM (inactive)
same,GI50,[16],4.71 µM (inactive)
same,GI50,[56],> 38.5 µM (inactive)
same,GI50,[17],13.6 µM (inactive)
same,GI50,[18],29.2 µM (inactive)
same,GI50,[19],> 57 µM (inactive)
same,GI50,[20],37.7 µM (inactive)
same,GI50,[21],21.5 µM (inactive)
same,GI50,[22],30.1 µM (inactive)
same,GI50,[23],7.31 µM (inactive)
same,GI50,[25],13.9 µM (inactive)
same,GI50,[26],9.33 µM (inactive)
same,GI50,[57],13 µM (inactive)
same,GI50,[27],15.6 µM (inactive)
same,GI50,[28],15.5 µM (inactive)
same,GI50,[29],> 70 µM (inactive)
same,GI50,[30],22.9 µM (inactive)
same,GI50,[31],31.5 µM (inactive)
same,GI50,[32],20.3 µM (inactive)
same,GI50,[33],18.4 µM (inactive)
same,GI50,[34],21.5 µM (inactive)
same,GI50,[35],9.86 µM (inactive)
same,GI50,[37],12.1 µM (inactive)
same,GI50,[38],6.82 µM (inactive)
same,GI50,[39],11.9 µM (inactive)
same,GI50,[40],10.3 µM (inactive)
same,GI50,[41],> 84.1 µM (inactive)
same,GI50,[42],13 µM (inactive)
same,GI50,[43],14.1 µM (inactive)
same,GI50,[44],> 57.8 µM (inactive)
same,GI50,[45],4.8 µM (inactive)
same,GI50,[46],3.03 µM (inactive)
same,GI50,[47],14.1 µM (inactive)
same,GI50,[58],6 µM (inactive)
same,GI50,[48],10.1 µM (inactive)
same,GI50,[49],7.52 µM (inactive)
same,GI50,[50],11.4 µM (inactive)
same,GI50,[51],27.9 µM (inactive)
same,GI50,[52],35.2 µM (inactive)
same,GI50,[53],9.89 µM (inactive)
same,GI50,[54],> 43.8 µM (inactive)
same,GI50,[55],4.04 µM
